Test results as given in article PMC9728343, “Characterization of CYP125A13, the First Steroid C-27 Monooxygenase from Streptomyces peucetius ATCC27952” (Journal of Microbiology and Biotechnology, 2020).

Columns and labels:
[1] = biological target: T1, CYP125A13 (Streptomyces peucetius, UniProt Q70AR4); test: UV-Vis spectral titration (type I shift), tight-binding quadratic fit; no product formation detected
T1 construct: gene cyp0266
T1 sequence (Q70AR4 1-413): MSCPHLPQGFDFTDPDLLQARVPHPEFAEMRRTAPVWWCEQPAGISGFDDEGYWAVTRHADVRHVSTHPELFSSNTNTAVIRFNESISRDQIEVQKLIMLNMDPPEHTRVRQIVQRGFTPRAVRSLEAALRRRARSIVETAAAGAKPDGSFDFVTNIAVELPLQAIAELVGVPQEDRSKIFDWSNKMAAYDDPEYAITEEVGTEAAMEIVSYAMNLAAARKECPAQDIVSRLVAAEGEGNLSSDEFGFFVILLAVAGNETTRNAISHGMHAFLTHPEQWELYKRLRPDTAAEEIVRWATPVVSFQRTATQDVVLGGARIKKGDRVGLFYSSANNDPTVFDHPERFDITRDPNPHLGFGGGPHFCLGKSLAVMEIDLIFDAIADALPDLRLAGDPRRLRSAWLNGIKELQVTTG

[2] = biological target: T1, CYP125A13; test: UV-Vis spectral titration (type I shift), tight-binding quadratic fit; also turnover to 27-hydroxycholesterol with PDX/PDR (Km […])

Row | Kd [2] [µM] | SMILES | Kd [1] [µM]
1 | – | CC(C)CCC[C@@H](C)[C@H]1CC[C@H]2[C@@H]3CCC4=CC(=O)CC[C@]4(C)[C@H]3CC[C@]12C [4-cholesten-3-one] | 59.2 ± 3.9
2 | 56.9 ± 11.3 | CC(C)CCC[C@@H](C)[C@H]1CC[C@H]2[C@@H]3CC=C4C[C@@H](O)CC[C@]4(C)[C@H]3CC[C@]12C [cholesterol] | –
